Data published in patent US20160044927A1, “Disinfectant Formulation Comprising Calcium Hydroxide and Sodium Hypochlorite” (priority 2012, published 2016).
Read-outs that look alike come from different tables or passages of the source.

Assays:
HSV-1 = settings: for Log TCID50/100 ul: preliminary
Description: Experiments: 10 μL of virus stock was mixed with 100% saturated Ca(OH)2 (Final Ca(OH)2 concentration 99%) and incubated for different lengths of time. Then the mixture was diluted and the viable number of virus (Log TCID) was measured.
99% saturated Ca(OH)2 was used to treat 2 viruses using different incubation times (5 min to 1 hr).

Aspergillus niger(#9642) = settings: 24 hr, very spotty growth, not yet a confluence lawn, other replicates patchy lawn

| Compound | log kill (HSV-1; HSV-1, in 1 hr) [log] | Log TCID50/100 ul (HSV-1; HSV-1, incubation 0 min) [Log TCID50/100 ul] | Log TCID50/100 ul (HSV-1; HSV-1, incubation 5 min) [Log TCID50/100 ul] | Log TCID50/100 ul (HSV-1; HSV-1, incubation 10 min) [Log TCID50/100 ul] | Log TCID50/100 ul (HSV-1; HSV-1, incubation 15 min) [Log TCID50/100 ul] | Log TCID50/100 ul (HSV-1; HSV-1, incubation 30 min) [Log TCID50/100 ul] | Log TCID50/100 ul (HSV-1; HSV-1, incubation 60 min) [Log TCID50/100 ul] | Zone of Inhibition (Aspergillus niger(#9642); paste volume 0.2 ml) | Zone of Inhibition (Aspergillus niger(#9642); paste volume 0.3 ml) |
| --- | --- | --- | --- | --- | --- | --- | --- | --- | --- |
| [Ca+2].[OH-].[OH-] [99% saturated Ca(OH)2, calcium hydroxide] | > 3.5 | 6.5 | 6 | 5.5 | 3.5 | 3 | <3 | – | – |
| [Ca+2].[OH-].[OH-] [Ca(OH)2 paste, calcium hydroxide] | – | – | – | – | – | – | – | —, ~35≠, — mm | —, ~34≠, — mm |
